Data reported in ChEMBL document CHEMBL1201862, “PubChem BioAssay data set” (2004).
Calls of active or inactive are those of the source. Rule as the data show it, for most assays here: actives have a measured EC50 and inactives only a lower limit.

What was measured:
[1] = P. falciparum Dd2 growth inhibitors, dose response, SYBR Green, cherry-picked samples (AID 1159567); assay type: functional, cell-based
[2] = target: T1, RNA-binding protein pos-1 (Caenorhabditis elegans, UniProt G5EF15); experiment: disruptors of C. elegans POS-1 RNA interaction – biochemical, fluorescence polarization, dose response (AID 1964);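 also: purified POS-1 fused to maltose binding protein made in E. coli; potency of compounds blocking POS-1 binding to fluorescent RNA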
T1 sequence (G5EF15 whole entry): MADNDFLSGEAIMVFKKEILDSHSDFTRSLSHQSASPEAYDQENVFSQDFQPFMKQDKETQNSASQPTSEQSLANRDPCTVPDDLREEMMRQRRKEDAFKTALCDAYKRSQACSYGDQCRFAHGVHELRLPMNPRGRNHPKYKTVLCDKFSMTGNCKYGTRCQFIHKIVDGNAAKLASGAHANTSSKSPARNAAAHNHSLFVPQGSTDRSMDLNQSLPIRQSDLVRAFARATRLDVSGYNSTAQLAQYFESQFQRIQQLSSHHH

[3] = target: T2, Zinc finger protein mex-5 (Caenorhabditis elegans, UniProt Q9XUB2); experiment: potency of MEX-5 RNA-binding blockers – biochemical, C. elegans, fluorescence polarization, dose response (AID 1960)
T2 sequence (Q9XUB2 whole entry): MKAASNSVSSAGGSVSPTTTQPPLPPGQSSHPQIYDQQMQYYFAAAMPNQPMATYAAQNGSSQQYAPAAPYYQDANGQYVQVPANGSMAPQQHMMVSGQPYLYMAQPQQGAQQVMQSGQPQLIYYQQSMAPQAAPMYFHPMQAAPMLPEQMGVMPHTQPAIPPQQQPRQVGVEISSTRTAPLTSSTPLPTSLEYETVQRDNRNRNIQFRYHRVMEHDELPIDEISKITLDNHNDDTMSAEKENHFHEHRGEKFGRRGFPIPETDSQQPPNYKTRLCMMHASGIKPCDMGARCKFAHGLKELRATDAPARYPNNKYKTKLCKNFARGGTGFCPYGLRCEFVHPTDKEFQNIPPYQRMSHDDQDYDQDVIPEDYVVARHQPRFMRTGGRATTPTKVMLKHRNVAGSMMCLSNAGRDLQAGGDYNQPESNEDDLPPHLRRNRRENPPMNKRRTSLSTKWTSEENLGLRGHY

[4] = target: Luciferin 4-monooxygenase (Photinus pyralis, UniProt P08659); experiment: inhibition of purified Photinus pyralis luciferase – biochemical, luminescence, dose response (AID 1891)
Sequence of Luciferin 4-monooxygenase (P08659 whole entry): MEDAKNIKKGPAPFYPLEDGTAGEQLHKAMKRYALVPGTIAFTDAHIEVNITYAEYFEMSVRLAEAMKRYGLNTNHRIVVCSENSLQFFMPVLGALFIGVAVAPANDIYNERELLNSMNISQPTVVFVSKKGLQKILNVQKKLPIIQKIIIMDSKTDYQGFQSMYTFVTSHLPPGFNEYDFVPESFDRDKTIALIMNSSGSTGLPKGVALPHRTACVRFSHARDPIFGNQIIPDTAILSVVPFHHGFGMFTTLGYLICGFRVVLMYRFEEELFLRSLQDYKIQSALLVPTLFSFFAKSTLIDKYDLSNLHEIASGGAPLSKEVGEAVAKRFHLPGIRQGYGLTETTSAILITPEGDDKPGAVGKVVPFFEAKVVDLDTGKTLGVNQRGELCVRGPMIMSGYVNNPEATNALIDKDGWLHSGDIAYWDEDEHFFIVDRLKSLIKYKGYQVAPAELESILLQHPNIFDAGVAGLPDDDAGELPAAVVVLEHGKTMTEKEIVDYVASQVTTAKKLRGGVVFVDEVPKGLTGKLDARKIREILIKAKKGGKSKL

[5] = Luminescence Cell-Based Dose Confirmation HTS to Identify Inhibitors of Platelet Dense Granule Release. [Related pubchem assays: 1663 (Primary HTS), 1678 (Summary of Project)]; assay type: functional
[6] = microbe, parasite or virus in culture; assay type: functional; details: Mycobacterium tuberculosis
[7] = Luminescence Cell-Based Dose Confirmation HTS to Identify Activators of 5'UTR Stem-Loop Driven Alpha-Synuclein mRNA Translation in H4 Neuroglioblastoma Cells. [Related pubchem assays: 1829 (Project Summary), 1814 (Primary HTS)]; assay type: functional
[8] = Luminescence Cell-Based Dose Response HTS to Identify Activators of Luciferase Translation or Activity in H4 […] Cells. [Related pubchem assays: 1829 (Project Summary), 1814 (Primary HTS)]; assay type: functional
H4 = experiment: Luminescence Cell-Based Dose Response HTS to Identify Activators of 5'UTR Stem-Loop Driven Prion Protein mRNA Translation in H4 Neuroglioblastoma Cells. [Related pubchem assays: 1829 (Project Summary), 1814 (Primary HTS)]; assay type: functional; details: Homo sapiens
Fatty acid synthase [9] = target: T3, Fatty acid synthase (Homo sapiens, UniProt P49327); experiment: inhibition of human FAS-TE enzyme activity – biochemical, endpoint fluorescence intensity, uHTS hits, dose response (AID 624327); assay type: functional;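 also: fluorescence from hydrolysis of an O-methyl fluorescein acyl ester substrate by the enzyme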
T3 sequence (P49327 whole entry): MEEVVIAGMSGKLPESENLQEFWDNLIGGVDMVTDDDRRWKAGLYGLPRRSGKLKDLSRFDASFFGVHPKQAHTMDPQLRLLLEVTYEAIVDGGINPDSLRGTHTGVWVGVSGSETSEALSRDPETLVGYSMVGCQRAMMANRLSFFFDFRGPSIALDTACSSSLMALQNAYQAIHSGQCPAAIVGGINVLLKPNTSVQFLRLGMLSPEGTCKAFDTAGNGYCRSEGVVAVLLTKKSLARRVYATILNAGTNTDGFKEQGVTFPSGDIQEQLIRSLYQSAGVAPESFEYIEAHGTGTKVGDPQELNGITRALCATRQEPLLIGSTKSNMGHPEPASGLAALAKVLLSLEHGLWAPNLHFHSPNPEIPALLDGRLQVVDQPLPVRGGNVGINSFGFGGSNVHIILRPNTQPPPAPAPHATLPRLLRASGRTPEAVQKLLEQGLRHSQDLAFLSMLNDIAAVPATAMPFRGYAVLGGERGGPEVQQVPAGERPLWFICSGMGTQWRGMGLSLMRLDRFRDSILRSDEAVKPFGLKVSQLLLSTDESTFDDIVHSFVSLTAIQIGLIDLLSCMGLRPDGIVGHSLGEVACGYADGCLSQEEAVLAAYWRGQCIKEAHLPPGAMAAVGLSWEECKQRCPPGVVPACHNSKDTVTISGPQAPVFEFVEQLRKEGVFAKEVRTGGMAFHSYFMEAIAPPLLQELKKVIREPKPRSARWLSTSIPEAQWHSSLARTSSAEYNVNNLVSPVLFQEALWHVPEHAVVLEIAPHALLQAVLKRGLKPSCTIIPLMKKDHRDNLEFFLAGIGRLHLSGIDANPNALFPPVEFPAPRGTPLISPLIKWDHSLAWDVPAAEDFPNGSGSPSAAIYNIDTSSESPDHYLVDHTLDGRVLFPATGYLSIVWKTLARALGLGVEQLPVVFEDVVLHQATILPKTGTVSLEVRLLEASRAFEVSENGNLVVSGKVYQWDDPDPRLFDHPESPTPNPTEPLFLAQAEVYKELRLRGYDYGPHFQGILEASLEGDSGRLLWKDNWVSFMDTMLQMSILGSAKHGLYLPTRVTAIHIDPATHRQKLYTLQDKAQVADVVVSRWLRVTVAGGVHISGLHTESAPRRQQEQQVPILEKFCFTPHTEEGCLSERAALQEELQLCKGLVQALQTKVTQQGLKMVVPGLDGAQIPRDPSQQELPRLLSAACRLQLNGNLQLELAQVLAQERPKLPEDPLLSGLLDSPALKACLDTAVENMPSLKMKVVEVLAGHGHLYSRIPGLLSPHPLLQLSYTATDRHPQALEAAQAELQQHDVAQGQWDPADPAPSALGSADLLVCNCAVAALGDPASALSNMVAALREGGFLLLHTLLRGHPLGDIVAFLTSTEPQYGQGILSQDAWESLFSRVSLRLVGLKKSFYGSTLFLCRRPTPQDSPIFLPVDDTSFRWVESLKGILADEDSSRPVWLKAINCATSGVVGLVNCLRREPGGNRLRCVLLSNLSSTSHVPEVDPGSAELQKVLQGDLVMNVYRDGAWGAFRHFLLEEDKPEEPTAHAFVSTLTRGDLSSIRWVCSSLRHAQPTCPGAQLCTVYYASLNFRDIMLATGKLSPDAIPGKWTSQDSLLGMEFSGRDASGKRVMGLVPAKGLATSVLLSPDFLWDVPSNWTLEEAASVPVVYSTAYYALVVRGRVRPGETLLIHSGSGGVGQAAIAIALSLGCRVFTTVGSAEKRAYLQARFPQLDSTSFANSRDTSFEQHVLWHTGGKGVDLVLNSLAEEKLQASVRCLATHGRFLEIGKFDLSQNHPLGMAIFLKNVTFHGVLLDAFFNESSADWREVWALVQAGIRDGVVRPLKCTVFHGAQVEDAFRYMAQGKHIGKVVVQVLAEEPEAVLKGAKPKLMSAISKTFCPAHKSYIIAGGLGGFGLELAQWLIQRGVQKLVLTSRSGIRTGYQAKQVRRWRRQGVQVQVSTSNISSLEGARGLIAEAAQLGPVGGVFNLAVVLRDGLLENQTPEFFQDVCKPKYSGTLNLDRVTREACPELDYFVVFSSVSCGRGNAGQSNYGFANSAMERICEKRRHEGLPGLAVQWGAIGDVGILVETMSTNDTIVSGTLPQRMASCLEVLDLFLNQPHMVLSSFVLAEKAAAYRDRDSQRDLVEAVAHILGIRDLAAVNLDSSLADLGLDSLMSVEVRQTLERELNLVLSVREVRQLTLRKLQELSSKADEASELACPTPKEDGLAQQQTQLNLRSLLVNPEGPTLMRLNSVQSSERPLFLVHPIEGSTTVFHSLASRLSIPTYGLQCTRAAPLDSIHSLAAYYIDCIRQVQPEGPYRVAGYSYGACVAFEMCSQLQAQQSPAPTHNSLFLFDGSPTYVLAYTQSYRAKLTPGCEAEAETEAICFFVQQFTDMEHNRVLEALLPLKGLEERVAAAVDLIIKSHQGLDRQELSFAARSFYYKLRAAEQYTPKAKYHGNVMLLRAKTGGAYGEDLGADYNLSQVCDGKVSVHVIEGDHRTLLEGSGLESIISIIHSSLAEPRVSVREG

Fatty acid synthase [10] = target: T3, Fatty acid synthase; experiment: inhibition of human FAS-TE enzyme activity – biochemical, kinetic fluorescence intensity, dose response (AID 624326); assay type: functional;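 also: rate of fluorescence rise from hydrolysis of a fluorogenic O-methyl fluorescein ester substrate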
[11] = viability of PTEN-deleted HCT116 cells – cell-based, HCT116 PTEN knockout, dose response (AID 1047); assay type: functional;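 also: HCT116 colon tumor cells with PTEN knocked out; cells exposed to compound for 60 hours before readout; potency for loss of cell viability measured by luminescence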
[12] = viability of HCT116 lacking mutant beta-catenin – cell-based, human colon tumor, dose response (AID 1045); assay type: functional;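 also: HCT116 colon tumor cells with beta catenin knocked out; cells exposed to compound for 60 hours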

With `COc1ccc(CN2C[C@H](C)[C@@H](OC)CN(C)C(=O)c3cc(NC(=O)c4nc5ccccc5s4)ccc3OC[C@@H]2C)cc1` the AC50 [1] was 4.9 µM (active).

In the case of `CC1(C)CC(=O)C2=C(C1)OC(/N=C/N1CCOCC1)=C(C#N)C2c1ccccc1` (stereo not drawn), the EC50 [2] is reported as > 300 µM (not active) and the EC50 [3] is reported as > 300 µM (not active).

With `COC(=O)c1cccc(NC(=O)Nc2ccc(Cl)cc2Cl)c1` the EC50 [4] was > 112 µM (not active) and the EC50 [5] was > 112 µM (not active).

In the case of `CN(C)c1ccc(N=Nc2ccccc2C(=O)OCC(=O)NCC2CCCCC2)cc1`, the CC50 [6] is reported as > 40 µM (active).

With `NC1=C(c2nc3ccccc3s2)C(=O)CN1Cc1ccccc1` the EC50 [7] was > 120 µM (not active), the EC50 [8] was 92 µM (active) and the EC50 (H4) was > 120 µM (not active).

In the case of `O=C(CSc1ccc([N+](=O)[O-])cc1)NCC1CCCCC1`, the IC50 (Fatty acid synthase [9]) is reported as 8.2 µM (active) and the IC50 (Fatty acid synthase [10]) is reported as 11.9 µM (active).

For `N#CC1=C(N)OC2=C(C(=O)CCC2)C1c1cc2c(cc1Cl)OCO2` (stereo not drawn), the EC50 [2] was > 300 µM (not active) and the EC50 [3] was > 300 µM (not active).

With `CC(C)c1ccc(N(C(=O)c2csnn2)C(C(=O)NC(C)(C)C)c2ccncc2)cc1` (stereo not drawn) the EC50 [7] was 5.54 µM (active), the EC50 [8] was > 120 µM (not active) and the EC50 (H4) was 22.6 µM (inconclusive).

With `COc1ccc(C(=O)C(CCC(CNC(C)(C)C)C(=O)c2ccc(OC)cc2)CNC(C)(C)C)cc1` (stereo not drawn) the EC50 [4] was > 112 µM (not active), the EC50 [5] was 4.24 µM (active) and the EC50 [11] was 3.04 µM (active). The EC50 [12] was 2.48 µM (active).

In the case of `Cc1ccc(NC(=O)CCNC(=O)c2ccc([N+](=O)[O-])cc2)cc1C`, the IC50 (Fatty acid synthase [9]) is reported as 9.54 µM (active) and the IC50 (Fatty acid synthase [10]) is reported as 9.29 µM (active).

In the case of `COc1cc(OC)c(NC(=O)c2cc(S(=O)(=O)N3CCOCC3)cn2C)cc1Cl`, the EC50 [4] is reported as > 112 µM (not active) and the EC50 [5] is reported as > 112 µM (not active).

For `N#Cc1c(/N=C/c2cc(Br)cs2)sc2c1CCC2`, the EC50 [7] was > 120 µM (not active), the EC50 [8] was 33.6 µM (active) and the EC50 (H4) was 11.2 µM (active).

In the case of `CC(=O)Nc1cccc(N2C(=O)CC(Cc3ccccc3)C2=O)c1` (stereo not drawn), the EC50 [4] is reported as > 112 µM (not active) and the EC50 [5] is reported as > 112 µM (not active).

With `COc1ccc(-c2cc3c(=O)n(CC(=O)NCc4ccc(F)cc4)ncn3n2)cc1` the EC50 [7] was 1.33 µM (active) and the EC50 [8] was 0.124 µM (active).

For `Clc1cccc(Cl)c1Cn1nnc(N2CCCC2)n1`, the EC50 [7] was 12 µM (active), the EC50 [8] was 13.8 µM (active) and the EC50 (H4) was 20.3 µM (active).

With `Cc1ccn2c(-c3csc(NCc4ccccc4)n3)c(C)nc2c1` the CC50 [6] was > 40 µM (active).

In the case of `O=[N+]([O-])c1cc(-c2ccc(/C=N/n3cnnc3)o2)ccc1Cl`, the EC50 [2] is reported as 30.1 µM (active) and the EC50 [3] is reported as 32.5 µM (active).

For `CSc1ccc(/C=N/NC(=O)c2cccc(O)c2)cc1`, the EC50 [4] was 0.619 µM (active) and the EC50 [5] was 6.7 µM (active).

For `COc1ccc2c3c(n(C)c2c1)[C@H](CO)N(Cc1ccncc1)CC31CCN(C(=O)Cc2ccncc2)CC1`, the AC50 [1] was 7.67 µM (active).

With `COc1ccc(CNc2ccc(-c3ccc(OC)cc3)nn2)cc1` the EC50 [4] was > 112 µM (not active) and the EC50 [5] was > 112 µM (not active).

With `COC(=O)c1ccc(CN2CC(=O)N3[C@H](CO)[C@@H](c4ccc(-c5ccccc5F)cc4)[C@H]3C2)cc1` the AC50 [1] was 30 µM (active).
